Read-outs that look alike come from different tables or passages of the source.
Columns and labels:
[1] = target: human recombinant serotonin (5-Hydroxytryptamine) 5-HT7 receptor (Homo sapiens, UniProt P34969); experiment: Serotonin 5-HT7 radioligand binding ([3H]LSD); details: compound at 1 μM; read-out: Inhibition of ligand binding, Serotonin 5-HT7 (percent inhibition of specific binding)
From the text: Receptor proteins were filtered and washed, the filters were then counted to determine [^3H]LSD specifically bound.

[2] = target: T1, human recombinant serotonin (5-Hydroxytryptamine) 5-HT2C receptor (Homo sapiens, UniProt P28335); experiment: Serotonin 5-HT2C radioligand binding ([3H]Mesulergine); details: compound at 1 μM; read-out: Inhibition of ligand binding, Serotonin 5-HT2C (percent inhibition of specific binding)
T1 construct: expressed in transfected cells; host or cells: Chinese hamster ovary (CHO-K1) cells
T1 sequence (P28335 33-458): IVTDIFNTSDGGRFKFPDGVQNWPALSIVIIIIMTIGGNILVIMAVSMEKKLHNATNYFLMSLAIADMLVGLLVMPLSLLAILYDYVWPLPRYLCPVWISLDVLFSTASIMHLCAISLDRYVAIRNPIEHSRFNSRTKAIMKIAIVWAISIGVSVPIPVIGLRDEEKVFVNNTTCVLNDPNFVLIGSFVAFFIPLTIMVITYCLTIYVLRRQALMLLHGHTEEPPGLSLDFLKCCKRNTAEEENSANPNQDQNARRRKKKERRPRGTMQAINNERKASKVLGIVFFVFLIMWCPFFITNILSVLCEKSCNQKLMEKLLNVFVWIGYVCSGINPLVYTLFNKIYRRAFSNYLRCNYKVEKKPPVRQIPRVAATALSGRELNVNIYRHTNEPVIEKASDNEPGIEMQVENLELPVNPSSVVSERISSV
Summary of the method: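 Compounds tested at 1 μM or lower (1% DMSO vehicle) for displacement of 1 nM [3H]Mesulergine over 60 min at 25° C. Specific binding determined by filtration counting, with 1 μM Mianserin defining non-specific binding; values are percent inhibition.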

[3] = target: T2, human recombinant histamine H2 receptor (Homo sapiens, UniProt P25021); experiment: Histamine H2 radioligand binding ([125I]Aminopotentidine); details: read-out: Histamine Binding (1 μM) H2, percent inhibition of specific binding, 1 μM
T2 construct: expressed in transfected cells; host or cells: Chinese hamster ovary (CHO) K1 cells
T2 sequence (P25021 whole entry): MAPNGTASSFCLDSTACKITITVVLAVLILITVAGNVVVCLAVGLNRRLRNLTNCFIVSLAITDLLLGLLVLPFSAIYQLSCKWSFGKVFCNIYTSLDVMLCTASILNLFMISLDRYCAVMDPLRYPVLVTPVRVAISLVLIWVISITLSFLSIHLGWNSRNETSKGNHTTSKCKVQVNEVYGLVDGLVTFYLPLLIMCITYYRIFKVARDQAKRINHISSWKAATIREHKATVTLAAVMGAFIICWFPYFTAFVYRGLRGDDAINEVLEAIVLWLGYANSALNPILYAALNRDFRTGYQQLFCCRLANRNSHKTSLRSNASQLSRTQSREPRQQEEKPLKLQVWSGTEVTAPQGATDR
Summary of the method: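 Receptor source: human recombinant H2 in CHO-K1 cells, assayed in 50 mM phosphate pH 7.4. Competition against 0.1 nM [125I]aminopotentidine, 120 min, 25 °C; 3 μM tiotidine sets nonspecific binding, filter-bound counts give specific binding.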

[4] = target: human dopamine D2L receptor (Homo sapiens, UniProt P14416); experiment: Dopamine D2L radioligand binding ([3H]Spiperone); details: compound at 1 μM
Chain of human dopamine D2L receptor (P14416 whole entry): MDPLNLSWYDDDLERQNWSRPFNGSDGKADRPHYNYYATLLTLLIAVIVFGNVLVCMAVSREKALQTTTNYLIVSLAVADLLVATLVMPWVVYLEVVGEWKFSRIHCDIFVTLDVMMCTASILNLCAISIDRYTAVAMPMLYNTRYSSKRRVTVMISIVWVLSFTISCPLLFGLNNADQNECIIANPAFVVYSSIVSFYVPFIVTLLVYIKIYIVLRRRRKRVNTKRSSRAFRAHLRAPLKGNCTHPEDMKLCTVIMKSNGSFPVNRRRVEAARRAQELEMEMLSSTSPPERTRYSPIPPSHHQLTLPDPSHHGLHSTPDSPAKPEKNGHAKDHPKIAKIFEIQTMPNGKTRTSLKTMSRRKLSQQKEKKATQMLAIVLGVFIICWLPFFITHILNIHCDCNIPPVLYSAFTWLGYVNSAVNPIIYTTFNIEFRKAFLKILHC
From the text: Non-specific binding was estimated in the presence of […] Haloperidol. Receptor proteins were filtered and washed, the filters were then counted to determine [^3H]Spiperone specifically bound. […] Biochemical assay results are presented as the percent inhibition of specific binding in Table 9.

[5] = target: T3, human recombinant serotonin (5-Hydroxytryptamine) 5-HT2A receptor (Homo sapiens, UniProt P28223); experiment: Serotonin 5-HT2A radioligand binding ([3H]Ketanserin); details: read-out: Inhibition of ligand binding, Serotonin 5-HT2A (percent inhibition of specific binding), compound at 1 μM
T3 construct: expressed in transfected cells; host or cells: Chinese hamster ovary (CHO-K1) cells
T3 sequence (P28223 whole entry): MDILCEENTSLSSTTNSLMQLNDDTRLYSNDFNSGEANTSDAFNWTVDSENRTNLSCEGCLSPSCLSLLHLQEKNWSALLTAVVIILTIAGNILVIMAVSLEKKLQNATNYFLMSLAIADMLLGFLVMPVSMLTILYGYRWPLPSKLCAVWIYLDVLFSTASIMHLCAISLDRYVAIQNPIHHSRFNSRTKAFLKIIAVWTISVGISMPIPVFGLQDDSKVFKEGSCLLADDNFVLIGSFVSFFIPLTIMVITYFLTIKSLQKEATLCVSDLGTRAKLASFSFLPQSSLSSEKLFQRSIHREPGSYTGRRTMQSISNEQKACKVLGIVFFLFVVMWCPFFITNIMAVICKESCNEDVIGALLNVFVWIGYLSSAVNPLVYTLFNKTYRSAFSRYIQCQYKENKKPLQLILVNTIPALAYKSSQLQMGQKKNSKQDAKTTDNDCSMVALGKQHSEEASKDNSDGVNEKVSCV
Procedure: Compounds of the invention were incubated with 0.5 nM [^3H]Ketanserin for 60 min. at 25° C. Non-specific binding was estimated in the presence of 1 μM Mianserin. Receptor proteins were filtered and washed, the filters were then counted to determine [^3H]Ketanserin specifically bound.

histamine receptor H1 = histamine receptor H1 (Homo sapiens, UniProt P35367); experiment: Histamine H1 radioligand binding ([3H]Pyrilamine); details: read-out: Histamine Binding (1 μM) H1, percent inhibition of specific binding, 1 μM
Chain of histamine receptor H1 (P35367 whole entry): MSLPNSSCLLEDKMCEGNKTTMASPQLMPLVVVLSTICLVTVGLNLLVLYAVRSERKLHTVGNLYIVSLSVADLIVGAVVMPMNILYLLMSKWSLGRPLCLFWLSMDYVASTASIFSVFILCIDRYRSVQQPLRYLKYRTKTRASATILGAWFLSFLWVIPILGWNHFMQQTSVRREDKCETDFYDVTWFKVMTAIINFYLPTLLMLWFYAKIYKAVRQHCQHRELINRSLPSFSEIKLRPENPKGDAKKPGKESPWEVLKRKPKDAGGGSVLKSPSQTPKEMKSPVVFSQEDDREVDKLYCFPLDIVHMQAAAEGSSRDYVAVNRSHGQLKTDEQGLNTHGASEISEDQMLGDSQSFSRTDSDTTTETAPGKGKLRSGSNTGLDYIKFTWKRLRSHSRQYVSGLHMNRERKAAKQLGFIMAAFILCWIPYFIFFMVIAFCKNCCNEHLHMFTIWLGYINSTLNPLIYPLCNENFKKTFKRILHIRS
Summary of the method: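 Values are percent inhibition of specific [3H]pyrilamine (1.2 nM) binding with compounds at ≤1 μM (1% DMSO vehicle); 180 min incubation at 25 °C, pH 7.4 Tris buffer, on CHO-expressed human H1 receptor; 1 μM pyrilamine defined nonspecific binding, bound ligand counted after filtration.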

[6] = target: T4, human recombinant serotonin (5-Hydroxytryptamine) 5-HT6 receptor (Homo sapiens, UniProt P50406); experiment: Serotonin 5-HT6 radioligand binding ([3H]LSD); details: compound at 1 μM; read-out: Inhibition of ligand binding, Serotonin 5-HT6 (percent inhibition of specific binding)
T4 construct: expressed in transfected cells; host or cells: human HeLa cells
T4 sequence (P50406 whole entry): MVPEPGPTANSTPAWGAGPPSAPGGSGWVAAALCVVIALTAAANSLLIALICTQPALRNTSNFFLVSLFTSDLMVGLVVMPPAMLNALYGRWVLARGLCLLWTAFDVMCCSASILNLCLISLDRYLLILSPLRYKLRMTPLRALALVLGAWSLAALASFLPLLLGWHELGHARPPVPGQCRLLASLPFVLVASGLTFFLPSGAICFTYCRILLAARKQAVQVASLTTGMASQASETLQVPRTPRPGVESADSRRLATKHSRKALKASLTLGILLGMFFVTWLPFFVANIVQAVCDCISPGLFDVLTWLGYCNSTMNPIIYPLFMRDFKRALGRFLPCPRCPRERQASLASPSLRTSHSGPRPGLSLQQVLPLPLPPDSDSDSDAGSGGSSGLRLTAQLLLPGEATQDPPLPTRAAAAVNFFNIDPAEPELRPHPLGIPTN
Procedure: Compounds of the invention were incubated with 1.5 nM [3H]Lysergic acid diethylamide (LSD) for 120 min. at 37° C. […] Receptor proteins were filtered and washed, the filters were then counted to determine [3H]LSD specifically bound. Compounds were screened at 1 μM or lower, using 1% DMSO as vehicle. Biochemical assay results are presented as the percent inhibition of specific binding in Table 10.

[7] = percent inhibition of specific binding, read-out: Inhibition of ligand binding, Dopamine D2L
[8] = […] [3H]Spiperone, read-out: Inhibition of ligand binding, Dopamine D2L (percent inhibition of specific binding)

Chain of human recombinant serotonin (5-Hydroxytryptamine) 5-HT7 receptor (P34969 whole entry): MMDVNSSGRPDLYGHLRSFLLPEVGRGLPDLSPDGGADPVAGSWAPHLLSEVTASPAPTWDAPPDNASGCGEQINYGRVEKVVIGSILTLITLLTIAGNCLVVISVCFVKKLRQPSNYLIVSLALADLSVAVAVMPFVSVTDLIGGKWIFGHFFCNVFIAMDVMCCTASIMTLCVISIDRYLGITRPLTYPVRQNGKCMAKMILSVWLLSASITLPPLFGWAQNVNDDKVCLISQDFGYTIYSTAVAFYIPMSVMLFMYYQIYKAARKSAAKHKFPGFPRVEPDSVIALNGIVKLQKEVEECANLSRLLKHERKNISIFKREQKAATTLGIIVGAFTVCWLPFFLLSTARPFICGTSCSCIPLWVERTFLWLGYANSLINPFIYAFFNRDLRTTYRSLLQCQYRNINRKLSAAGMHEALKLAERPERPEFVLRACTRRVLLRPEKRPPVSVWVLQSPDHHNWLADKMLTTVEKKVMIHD

Structure (SMILES) | inhibition at 1 µM [1] [%] | inhibition at 1 µM [2] [%] | inhibition at 1 µM [3] [%] | inhibition at 1 µM [4, 7] [%] | inhibition at 1 µM [5] [%] | inhibition at 1 µM (histamine receptor H1) [%] | inhibition at 1 µM [6] [%] | inhibition at 1 µM [4, 8] [%]
C/C(=C\n1c2c(c3c(Cl)c(Cl)ccc31)CN(C)CC2)c1ccncc1 [Compound 245, (E)-8,9-dichloro-2-methyl-5-(2-(pyridin-4-yl)prop-1-enyl)-2,3,4,5-tetrahydro-1H-pyrido[4,3-b]indole] | 74 | 96 | 71 | 92 | 102 | 60 | 103 | 
COc1ccc2c(c1)c1c(n2/C=C(\C)c2ccncc2)CCN(C)C1 [Compound 246, (E)-8-methoxy-2-methyl-5-(2-(pyridin-4-yl)prop-1-enyl)-2,3,4,5-tetrahydro-1H-pyrido[4,3-b]indole] | 88 | 94 | 29 | 57 | 97 | 7 | 104 | 
C/C(=C/n1c2c(c3cc(C)ccc31)CN(C)CC2)c1ccc(Cl)c(Cl)c1 [Compound 247, (Z)-5-(2-(3,4-dichlorophenyl)prop-1-enyl)-2,8-dimethyl-2,3,4,5-tetrahydro-1H-pyrido[4,3-b]indole] | 101 | 100 | 99 | 28 | 101 | 75 | 103 | 
C=C(Cn1c2c(c3cccc(F)c31)CN(C)CC2)c1ccc(F)cc1 [Compound No. 353, 6-fluoro-5-(2-(4-fluorophenyl)allyl)-2-methyl-2,3,4,5-tetrahydro-1H-pyrido[4,3-b]indole] | 87 | 97 | 93 |  | 98 | 100 | 100 | 92
C=C(Cn1c2c(c3cccc(Cl)c31)CN(C)CC2)c1ccc(F)cc1 [Compound No. 354, 6-chloro-5-(2-(4-fluorophenyl)allyl)-2-methyl-2,3,4,5-tetrahydro-1H-pyrido[4,3-b]indole] | 75 | 101 | 97 |  | 100 | 86 | 103 | 98
C=C(Cn1c2c(c3cc(C)ccc31)CN(C)CC2)c1ccc(O)cc1 [Compound No. 355, 4-(3-(2,8-dimethyl-3,4-dihydro-1H-pyrido[4,3-b]indol-5(2H)-yl)prop-1-en-2-yl)phenol] | 92 | 99 | 93 |  | 92 | 116 | 101 | 81
C=C(Cn1c2c(c3cc(OC)ccc31)CN(C)CC2)c1ccncc1 [Compound No. 356, 8-methoxy-2-methyl-5-(2-(pyridin-4-yl)allyl)-2,3,4,5-tetrahydro-1H-pyrido[4,3-b]indole] | 60 | 83 | 17 |  | 81 | 70 | 90 | 37
Cc1ccc(C#Cn2c3c(c4cc(Cl)ccc42)CN(C)CC3)cn1 [Compound No. 484, 8-chloro-2-methyl-5-((6-methylpyridin-3-yl)ethynyl)-2,3,4,5-tetrahydro-1H-pyrido[4,3-b]indole] | 83 | 95 | 77 |  | 98 | 6 | 34 | -4
COc1ccc(C#Cn2c3c(c4cc(C)ccc42)CN(C)CC3)cc1F [Compound No. 485, 5-((3-fluoro-4-methoxyphenyl)ethynyl)-2,8-dimethyl-2,3,4,5-tetrahydro-1H-pyrido[4,3-b]indole] | 77 | 102 | 97 |  | 96 | -6 | 89 | 14

— US8906925B2, “Pyrido[4,3-B]indoles containing rigid moieties” (Medivation Technologies, Inc., priority 2008, dated 2014)
